In patent US12201628B2, “Neuronal modulation” (priority 2013, dated 2025):

Tests used:
[1] = IP injected; cited from earlier work
[2] = test system: immune cell clusters (CD45+ cells); assay: CyTOF mass cytometry of blood and spleen with Citrus analysis; assay type: in vivo, mice; conditions: 6-OHDA 150 mg/kg twice IP (SNS ablated); splenocytes 24 h after VTA activation
Method: Two weeks after completion of the behavioral testing, mice were injected intraperitoneally with CNO and anesthetized 24 hours thereafter. Spleens and blood samples were collected. Spleens were dissociated into single-cell suspensions in 2% fetal bovine serum (Biological Industries, IL) and mesh filtered to remove clumps and debris. Blood samples were collected into heparin-coated sterile test tubes. Both the blood and the spleen cell suspensions were lysed with red blood cell lysis buffer (BD Biosciences, NJ, US). Cells ([…]) from each tissue were stained, for 1 hour at room temperature, with a mixture of metal tagged antibodies recognizing CD45, CCR3, CD80, GR1, CD86, CD19, CD4, CD45R, CD152, CD138, CD8, NK1.1, CD27, CD206, CD25, CD14, CD11c, CD49b, CD34, CD69, CD123, TCRβ, CCR7, CD28, CD115, CD133, TLR4, CD117, CD79b, CD62L, CD44, CD45RA, CD1d, IAIE, CD5, and CD11b. All antibodies were conjugated using the MAXPAR reagent (Fluidigm Inc.), with Rhodium and Iridium intercalators used to identify live/dead cells. Cells were washed twice with PBS, fixed in 1.6% formaldehyde (Sigma-Aldrich, St. Louis, MO) for 1 hour, washed again in ultrapure H2O and subjected to CyTOF mass cytometry analysis on a CyTOF I machine, with cell events acquired at approximately 500 events per second. In addition, each sample was spiked with internal metal isotope bead standards, which then was used for sample normalization by CyTOF software (Fluidigm). Acquired data was then uploaded to a Cytobank web server (Cytobank Inc.) for data processing and gating out of dead cells and normalization beads. Data was transformed using an arc sin h (X/5) transformation.
Differences in cell subset abundance and functional marker expression between VTA activated and control mice, were identified using the Citrus algorithm, a clustering and differential detection algorithm especially suited for high dimensional cytometry data (2). Twenty FCS files of normalized, live cell/no beads samples (Five VTA activated mice spleens, five VTA activated mice blood samples, 5 control mice spleen and five control mice blood) were each randomly sampled for 40,000 single cell events each. Briefly, Citrus performs three steps to identify cell subsets and differences between groups: First, collected single cell events are pooled together and iteratively hierarchically clustered using a subset of the measured channels for clustering (See Table 1 for a list of 23 clustering markers), yielding overlapping clusters with the ultimate cluster being one encompassing all sampled events. Second, the pooled dataset is split back into its constituting samples and the relative abundance of cells in each cluster is computed, as well as the median values of each functional marker (see Table 1 for a list of functional markers). Only cell clusters whose total abundance in one or more of the measured samples was greater than 1% of the total measured sample was retained for downstream analysis, yielding a total of 151 clusters. Third, the Citrus implementation of the SAM algorithm was applied, to identify, separately, differences in cell subset abundances and medians between VTA activated and control mouse samples at a predetermined FDR of 5%. Beyond this, an additional criteria for calling differences was employed, by performing a Mann-Whitney non-parametric test of significance on each cluster found to be different between VTA activated and control and requiring that it meet a p-value <0.05 criteria. Manual inspection of Citrus output was used to identify the closest known gross-cell type, matching the 23 combination clustering marker panel. A similar procedure analysis procedure was performed for 6-OHDA samples versus control. […]

Q: Which results are given for `NCCc1cc(O)c(O)cc1O` [6 OHDA, 6-hydroxydopamine]?
A: crossing of the blood brain barrier [1]: does not cross the blood brain barrier; differences in immune system (CD45+ cells) between VTA-activated and control mice [2]: no significant differences were detected
